Measured values from patent publication US20220411421A1, “4-AMINO-IMIDAZOQUINOLINE COMPOUNDS AND USE THEREOF” (Prime Reach Trading Limited, priority 2019, published 2022).

Tests used:
Format in all cases: cell-based
hTLR7 = biological target: T1, hTLR7 (Homo sapiens, UniProt Q9NYK1); assay: hTLR7 agonistic activity, HEK-Blue hTLR7 SEAP reporter gene assay; settings: for EC50: HEK-Blue hTLR7 cells, SEAP reporter, about 16 hours incubation, read-out: TLR7 EC50
T1 construct: expressed in transfected cells; host or cells: HEK-Blue hTLR7 cells
T1 sequence (Q9NYK1 27-1049): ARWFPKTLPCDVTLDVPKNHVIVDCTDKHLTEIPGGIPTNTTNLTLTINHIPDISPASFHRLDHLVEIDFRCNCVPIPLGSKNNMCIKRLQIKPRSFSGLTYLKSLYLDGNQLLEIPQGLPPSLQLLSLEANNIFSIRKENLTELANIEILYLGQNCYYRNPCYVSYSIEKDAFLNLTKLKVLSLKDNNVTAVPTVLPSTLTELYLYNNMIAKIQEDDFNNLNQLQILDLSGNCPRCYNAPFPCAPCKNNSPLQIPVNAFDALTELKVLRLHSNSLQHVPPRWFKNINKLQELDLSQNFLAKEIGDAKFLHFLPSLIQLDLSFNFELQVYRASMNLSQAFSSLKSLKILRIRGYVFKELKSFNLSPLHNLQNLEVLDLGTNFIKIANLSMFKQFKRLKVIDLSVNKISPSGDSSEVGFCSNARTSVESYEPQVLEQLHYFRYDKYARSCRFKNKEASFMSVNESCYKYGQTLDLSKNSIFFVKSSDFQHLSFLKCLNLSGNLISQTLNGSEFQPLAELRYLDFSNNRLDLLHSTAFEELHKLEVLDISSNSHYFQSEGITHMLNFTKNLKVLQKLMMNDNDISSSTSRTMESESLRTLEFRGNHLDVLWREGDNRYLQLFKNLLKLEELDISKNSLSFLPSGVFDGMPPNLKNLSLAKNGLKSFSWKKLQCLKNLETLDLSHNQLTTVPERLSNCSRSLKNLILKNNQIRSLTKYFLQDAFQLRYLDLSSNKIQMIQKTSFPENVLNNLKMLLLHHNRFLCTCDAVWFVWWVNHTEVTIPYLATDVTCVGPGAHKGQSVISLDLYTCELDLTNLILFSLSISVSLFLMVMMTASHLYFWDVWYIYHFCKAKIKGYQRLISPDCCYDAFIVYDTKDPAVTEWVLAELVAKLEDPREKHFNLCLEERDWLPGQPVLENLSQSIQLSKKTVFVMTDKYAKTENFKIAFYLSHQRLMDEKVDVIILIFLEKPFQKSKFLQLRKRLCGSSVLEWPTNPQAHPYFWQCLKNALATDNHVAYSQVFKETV
Method: To analyze the hTLR7 agonistic activity, HEK-Blue hTLR7 cells transfected with secreted embryonic alkaline phosphatase (SEAP) reporter were seeded at 3×10^4 cell/well. […] The SEAP reporter is designed specifically for measuring secreted placental AP (alkaline phosphatase) in conditioned cell culture medium from transfected cells. The HEK-Blue hTLR7 cells served to measure the bioactivity of TLR7 through SEAP upon NF-κB activation following TLR7 stimulation.
(§1) In the SEAP reporter gene assay as described above, water was used as a negative control. […] The dose-response curves were fit with four parameter logistic curves (SigmaPlot, version 9.0). The EC50-values of the test compounds and reference compounds were calculated.

human PBMCs [1] = assay: Ex vivo cytokine profile: IP-10 induction from human PBMCs; settings: human PBMCs stimulated 24 h, normalized to baseline; FIGS. 3A-C
Method: (§2) Three test compounds (Compound Nos. 2, 9, 10) were used to evaluate the effect on cytokine induction.
(§3) Cryopreserved human PBMCs from 4 normal adult volunteers were purchased from EPBMC® (IMMUNOSPOT®). The PBMCs were thawed at 37° C. for 10 minutes and centrifuged at 300×g at room temperature for 5 minutes. The pelleted PBMCs were transferred to RPMI-1640 medium containing 10% FBS, 1% PSA and incubated at 37° C. with 5% CO2.
(§4) The test compounds and reference compounds were respectively dissolved in DMSO and subsequently 25-fold diluted with PBS to make stock solutions at a concentration of 0.1 mM. The preincubated PBMCs were harvested and resuspended in a fresh RPMI-1640 medium containing 10% FBS and 1% PSA. Approximately 1×10^3 PBMCs were added to each well of 96-well plates and stimulated with 0, 20 or 1000 nM of test compounds for 24 h at 37° C. in a 5% CO2 humidified incubator. The culture supernatant was stocked at −20° C. for analysis of TLR7- and TLR8-mediated cytokine induction. PROCARTAPLEX™ Immunoassay (Invitrogen) was performed to quantify human IL-6, IL-12p70, IP-10 in the culture supernatant according to the manufacturer's instructions. Briefly, the culture supernatant samples were thawed on ice and transferred to a microtiter plate. Magnetic bead-coupled antibodies specific to the target cytokines were added to the samples for analyte capturing. The immobilized target cytokine was specifically detected by biotin-conjugated antibodies and then labelled with streptavidin-Phycoerythrin (PE). The PE-labelled magnetic beads were detected and identified by LUMINEX™ 200™ analyzer. Data acquisition, processing and analysis was conducted by using XPONENT™ 3.1 software. The target cytokines were normalized to their baseline cytokine levels and presented as relative cytokines.

hTLR8 = biological target: T2, hTLR8 (Homo sapiens, UniProt Q9NR97); assay: hTLR8 agonistic activity, HEK-Blue hTLR8 SEAP reporter gene assay; settings: for EC50: HEK-Blue hTLR8 cells, SEAP reporter, about 16 hours incubation, read-out: TLR8 EC50; for Ratio of TLR8 EC50 and TLR7 EC50: TLR8 EC50 / TLR7 EC50, HEK-Blue reporter cells
T2 construct: expressed in transfected cells; host or cells: HEK-Blue hTLR8 cells
T2 sequence (Q9NR97 27-1041): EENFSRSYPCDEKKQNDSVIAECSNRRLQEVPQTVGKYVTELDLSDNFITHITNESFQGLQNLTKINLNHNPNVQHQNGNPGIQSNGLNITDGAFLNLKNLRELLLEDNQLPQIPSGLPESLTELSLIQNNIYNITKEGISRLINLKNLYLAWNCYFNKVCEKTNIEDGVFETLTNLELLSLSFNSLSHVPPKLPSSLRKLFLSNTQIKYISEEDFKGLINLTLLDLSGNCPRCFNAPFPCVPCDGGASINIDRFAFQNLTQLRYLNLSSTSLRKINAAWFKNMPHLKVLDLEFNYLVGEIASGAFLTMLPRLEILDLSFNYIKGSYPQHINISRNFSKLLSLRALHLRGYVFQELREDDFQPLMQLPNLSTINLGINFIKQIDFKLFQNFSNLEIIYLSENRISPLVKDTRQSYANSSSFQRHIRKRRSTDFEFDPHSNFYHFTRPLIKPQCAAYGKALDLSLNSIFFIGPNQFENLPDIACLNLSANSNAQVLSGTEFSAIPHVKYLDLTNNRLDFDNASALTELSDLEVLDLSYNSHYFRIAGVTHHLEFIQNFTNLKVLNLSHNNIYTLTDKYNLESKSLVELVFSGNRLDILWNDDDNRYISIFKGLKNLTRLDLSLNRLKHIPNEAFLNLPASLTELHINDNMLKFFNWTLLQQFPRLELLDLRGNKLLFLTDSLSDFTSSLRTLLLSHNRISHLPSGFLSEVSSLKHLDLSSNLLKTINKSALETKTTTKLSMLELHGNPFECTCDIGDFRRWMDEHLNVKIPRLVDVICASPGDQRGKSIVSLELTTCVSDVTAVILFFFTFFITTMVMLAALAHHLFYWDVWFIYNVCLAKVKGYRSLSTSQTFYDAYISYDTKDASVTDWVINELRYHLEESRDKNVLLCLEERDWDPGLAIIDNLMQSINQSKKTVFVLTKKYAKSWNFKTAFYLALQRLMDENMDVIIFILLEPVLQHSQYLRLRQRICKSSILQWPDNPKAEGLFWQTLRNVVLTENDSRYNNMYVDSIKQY
Method: To analyze the hTLR8 agonistic activity, HEK-Blue hTLR8 cells transfected with SEAP reporter were seeded at 3×10^4 cell/well. […] The HEK-Blue hTLR8 cells served to measure the bioactivity of TLR8 through the SEAP upon NF-κB activation following TLR8 stimulation.
as §1

human PBMCs [2] = assay: Ex vivo cytokine profile: IL-6 induction from human PBMCs; settings: human PBMCs stimulated 24 h, normalized to baseline; FIGS. 1A-C
Method: Cryopreserved human PBMCs from 4 normal adult volunteers were purchased from EPBMC® (IMMUNOSPOT®). The PBMCs were thawed at 37° C. for 10 minutes and centrifuged at 300×g at room temperature for 5 minutes.
as §4, with “The preincubated PBMCs were harvested and resuspended in a fresh RPMI-1640 medium containing 10% FBS and 1% PSA.” left out

human PBMCs [3] = assay: Ex vivo cytokine profile: IL-12p70 induction from human PBMCs; settings: human PBMCs stimulated 24 h, normalized to baseline; FIGS. 2A-C
Method: as §2, §3, §4

| SMILES | TLR7 and TLR8 dual agonistic activity (in words) (hTLR7; HEK-Blue hTLR7 and hTLR8 reporter cells, summary of Table 1) | EC50 (hTLR7) | EC50 (hTLR8) | Ratio of TLR8 EC50 and TLR7 EC50 (hTLR8) | relative IP-10 induction (human PBMCs [1]) | relative IL-6 induction (human PBMCs [2]) | relative IL-12p70 induction (human PBMCs [3]) |
| --- | --- | --- | --- | --- | --- | --- | --- |
| CC(C)(O)Cn1c(CCCC(F)(F)F)nc2c(N)nc3ccccc3c21 [Compound 9, 1-(4-amino-2-(4,4,4-trifluorobutyl)-1H-imidazo[4,5-c]quinolin-1-yl)-2-methylpropan-2-ol] |  | 129 ± 10.9 nM | 965 ± 14.7 nM | 7.49 | high IP-10 induction activity | low IL-6 induction activity | high IL-12p70 induction activity |
| CC(C)(O)Cn1c(CCCCC(F)(F)F)nc2c(N)nc3ccccc3c21 [Compound 10, 1-(4-amino-2-(5,5,5-trifluoropentyl)-1H-imidazo[4,5-c]quinolin-1-yl)-2-methylpropan-2-ol] |  | 543 ± 29.4 nM | 4746 ± 20.5 nM | 8.74 | high IP-10 induction activity | low IL-6 induction activity | high IL-12p70 induction activity |
| CCCN(CCC)C(=O)C1=Cc2ccc(-c3ccc(C(=O)N4CCCC4)cc3)cc2N=C(N)C1 [Ref. 3, VTX2337, reference compound] |  |  |  |  |  | low IL-6 induction activity |  |

Second part, led by results:

| TLR7 and TLR8 dual agonistic activity (in words) (hTLR7; HEK-Blue hTLR7 and hTLR8 reporter cells, summary of Table 1) | EC50 (hTLR7) | EC50 (hTLR8) | Ratio of TLR8 EC50 and TLR7 EC50 (hTLR8) | SMILES | relative IP-10 induction (human PBMCs [1]) | relative IL-6 induction (human PBMCs [2]) | relative IL-12p70 induction (human PBMCs [3]) |
| --- | --- | --- | --- | --- | --- | --- | --- |
| the most potent TLR7/8 dual agonist | 67.1 ± 8.3 nM | 267 ± 13.5 nM | 3.98 | CCCCCc1nc2c(N)nc3ccccc3c2n1CC(C)(C)O [Compound 2, 1-(4-amino-2-pentyl-1H-imidazo[4,5-c]quinolin-1-yl)-2-methylpropan-2-ol] | high IP-10 induction activity | low IL-6 induction activity | high IL-12p70 induction activity |
|  | 237 ± 7.4 nM | 5299 ± 14.4 nM | 22.36 | CCCc1nc2c(N)nc3ccccc3c2n1CC(C)(C)O [Compound 1, 1-(4-amino-2-propyl-1H-imidazo[4,5-c]quinolin-1-yl)-2-methylpropan-2-ol] |  |  |  |
